Like-named read-outs stand apart in the source and are kept apart here.
Target: human sodium ion channel 1.7 (hNav1.7) (Homo sapiens, UniProt Q15858)
Assay: Blocking effect against sodium ion channel Nav1.7, IonFlux16 auto patch clamp in hNav1.7 HEK293 cells
Format: cell-based
[1] = hNav1.7 HEK293 cells, inhibition of peak current after 50 seconds treatment, eight concentrations, read-out: IC50

Sequence of human sodium ion channel 1.7 (hNav1.7) (Q15858 whole entry): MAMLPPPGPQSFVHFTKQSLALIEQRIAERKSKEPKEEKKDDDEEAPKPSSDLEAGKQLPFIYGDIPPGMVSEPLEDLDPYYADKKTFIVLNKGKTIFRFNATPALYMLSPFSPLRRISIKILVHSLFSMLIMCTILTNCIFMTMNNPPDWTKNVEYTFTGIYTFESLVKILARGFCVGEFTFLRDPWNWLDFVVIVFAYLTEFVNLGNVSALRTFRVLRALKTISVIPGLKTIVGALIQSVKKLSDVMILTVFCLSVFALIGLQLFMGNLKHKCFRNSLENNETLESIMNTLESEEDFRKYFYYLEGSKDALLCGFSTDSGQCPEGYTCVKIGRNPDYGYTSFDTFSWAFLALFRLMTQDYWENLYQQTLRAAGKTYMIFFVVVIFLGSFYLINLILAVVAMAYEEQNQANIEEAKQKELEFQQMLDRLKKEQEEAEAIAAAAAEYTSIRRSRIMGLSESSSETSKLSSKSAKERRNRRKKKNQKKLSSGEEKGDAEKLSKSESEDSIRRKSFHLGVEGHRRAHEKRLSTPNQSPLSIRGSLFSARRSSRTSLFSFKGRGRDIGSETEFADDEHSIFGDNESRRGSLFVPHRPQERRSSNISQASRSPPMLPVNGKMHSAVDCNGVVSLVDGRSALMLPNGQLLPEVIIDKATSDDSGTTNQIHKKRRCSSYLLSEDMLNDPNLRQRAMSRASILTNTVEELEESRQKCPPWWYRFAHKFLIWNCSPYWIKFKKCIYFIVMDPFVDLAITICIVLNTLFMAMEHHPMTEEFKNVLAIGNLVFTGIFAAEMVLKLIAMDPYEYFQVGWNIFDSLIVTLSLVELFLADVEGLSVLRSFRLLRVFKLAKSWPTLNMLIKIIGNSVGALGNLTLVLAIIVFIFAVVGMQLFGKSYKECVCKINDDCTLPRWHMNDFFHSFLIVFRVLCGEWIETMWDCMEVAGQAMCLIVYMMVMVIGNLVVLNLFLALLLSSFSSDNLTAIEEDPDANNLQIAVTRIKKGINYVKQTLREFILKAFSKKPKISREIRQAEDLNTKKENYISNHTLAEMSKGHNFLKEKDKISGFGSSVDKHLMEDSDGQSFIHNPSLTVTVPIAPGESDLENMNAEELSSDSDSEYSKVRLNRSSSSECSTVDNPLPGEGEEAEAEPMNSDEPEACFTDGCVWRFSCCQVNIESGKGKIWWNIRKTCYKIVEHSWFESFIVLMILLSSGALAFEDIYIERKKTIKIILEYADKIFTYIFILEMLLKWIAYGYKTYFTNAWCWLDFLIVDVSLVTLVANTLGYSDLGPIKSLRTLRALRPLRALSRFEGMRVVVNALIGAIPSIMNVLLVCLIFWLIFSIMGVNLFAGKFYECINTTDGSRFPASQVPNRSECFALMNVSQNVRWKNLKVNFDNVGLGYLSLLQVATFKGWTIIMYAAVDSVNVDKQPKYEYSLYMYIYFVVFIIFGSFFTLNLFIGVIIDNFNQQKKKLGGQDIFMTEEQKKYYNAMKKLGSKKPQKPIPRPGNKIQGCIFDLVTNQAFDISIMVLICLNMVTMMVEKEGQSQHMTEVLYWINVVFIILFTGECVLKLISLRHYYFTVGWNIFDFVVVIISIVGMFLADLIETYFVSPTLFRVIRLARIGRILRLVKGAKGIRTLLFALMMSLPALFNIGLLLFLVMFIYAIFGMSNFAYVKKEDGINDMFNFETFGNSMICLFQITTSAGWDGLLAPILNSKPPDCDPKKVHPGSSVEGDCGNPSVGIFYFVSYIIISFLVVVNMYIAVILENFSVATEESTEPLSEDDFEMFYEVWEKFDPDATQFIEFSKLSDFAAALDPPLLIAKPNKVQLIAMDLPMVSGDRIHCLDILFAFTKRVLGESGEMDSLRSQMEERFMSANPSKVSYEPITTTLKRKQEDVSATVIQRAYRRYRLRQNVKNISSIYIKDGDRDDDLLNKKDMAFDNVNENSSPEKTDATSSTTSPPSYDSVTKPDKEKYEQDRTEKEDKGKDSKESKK

IC50 [1] [µM] | IC50 [µM] | Compound
> 10 | – | CS(=O)(=O)NC(=O)c1cc(Cl)c(-n2ncc3cc(N)ccc32)cc1F [Example 13, 4-(5-amino-1H-indazol-1-yl)-5-chloro-2-fluoro-N-(methylsulfonyl)benzamide]
0.341 | – | CS(=O)(=O)NC(=O)c1cc(Cl)c(-n2nc(Cl)c3cc(-c4cc(C#N)ccc4F)ccc32)cc1F [Example 238, 5-chloro-4-(3-chloro-5-(5-cyano-2-fluorophenyl)-1H-indazol-1-yl)-2-fluoro-N-(methylsulfonyl)benzamide]
> 10 | – | CS(=O)(=O)NC(=O)c1ccc(-n2nc(Cl)c3cc(O)ccc32)cc1 [Example 12, 4-(3-chloro-5-hydroxy-1H-indazol-1-yl)-N-(methylsulfonyl)benzamide]
0.608 | – | COc1ccc2c(c1)c(Cl)cn2-c1cc(F)c(C(=O)NS(C)(=O)=O)cc1Cl [Example 268, 5-chloro-4-(3-chloro-5-methoxy-1H-indol-1-yl)-2-fluoro-N-(methylsulfonyl)benzamide]
8.25 | – | O=S(=O)(Nc1cscn1)c1cc(Cl)c(-n2nc(-c3ccc(Cl)cc3F)c3cc(Cl)ccc32)cc1F [Example 287, 5-chloro-4-(5-chloro-3-(4-chloro-2-fluorophenyl)-1H-indazol-1-yl)-2-fluoro-N-(thiazol-4-yl)benzenesulfonamide]
> 10 | – | CS(=O)(=O)N(Cc1ccc(F)cc1)C(=O)c1cc(Cl)c(-n2nc(Cl)c3cc(O)ccc32)cc1F [Example 141, 5-chloro-4-(3-chloro-5-hydroxy-1H-indazol-1-yl)-2-fluoro-N-(4-fluorobenzyl)-N-(methylsulfonyl)benzamide]
> 10 | – | CS(=O)(=O)NC(=O)c1cc(Cl)c(-n2nc(Cl)c3cc(-c4cncnc4)ccc32)cc1F [Example 241, 5-chloro-4-(3-chloro-5-(pyrimidin-5-yl)-1H-indazol-1-yl)-2-fluoro-N-(methylsulfonyl)benzamide]
0.187 | – | CS(=O)(=O)NC(=O)c1cc(Cl)c(-n2nc(-c3cncc(Cl)c3)c3cc(Cl)ccc32)cc1F [Example 51, 5-chloro-4-(5-chloro-3-(5-chloropyridin-3-yl)-1H-indazol-1-yl)-2-fluoro-N-(methylsulfonyl)benzamide]
0.098 | – | COc1ccccc1-c1nn(-c2cc(F)c(C(=O)NS(C)(=O)=O)cc2Cl)c2ccc(Cl)cc12 [Example 58, 5-chloro-4-(5-chloro-3-(2-methoxyphenyl)-1H-indazol-1-yl)-2-fluoro-N-(methylsulfonyl)benzamide]
0.2 | – | CN(C)S(=O)(=O)NC(=O)c1cc(Cl)c(-n2nc(Cl)c3cc(OCc4ccccc4)ccc32)cc1F [Example 43, 4-(5-(benzyloxy)-3-chloro-1H-indazol-1-yl)-5-chloro-N—(N,N-dimethylsulfamoyl)-2-fluorobenzamide]
0.28 | – | CS(=O)(=O)NC(=O)c1cc(Cl)c(-n2cc(-c3ccc(Cl)cc3)c3cccnc32)cc1F [Example 224, 5-chloro-4-(3-(4-chlorophenyl)-1H-pyrrolo[2,3-b]pyridin-1-yl)-2-fluoro-N-(methylsulfonyl)benzamide]
0.175 | – | CS(=O)(=O)NC(=O)c1cc(Cl)c(-n2nc(Cl)c3cc(-c4ccc(F)cc4F)ccc32)cc1F [Example 243, 5-chloro-4-(3-chloro-5-(2,4-difluorophenyl)-1H-indazol-1-yl)-2-fluoro-N-(methylsulfonyl)benzamide]
– | 0.07 | CS(=O)(=O)NC(=O)c1cc(Cl)c(-n2nc(-c3cccc(Cl)c3F)c3cc(Cl)ccc32)cc1F [Example 79, 5-chloro-4-(5-chloro-3-(3-chloro-2-fluorophenyl)-1H-indazol-1-yl)-2-fluoro-N-(methylsulfonyl)benzamide]
0.144 | – | CS(=O)(=O)NC(=O)c1cc(Cl)c(-n2nc(Cl)c3cc(-c4ccccc4)ccc32)cc1F [Example 230, 5-chloro-4-(3-chloro-5-phenyl-1H-indazol-1-yl)-2-fluoro-N-(methylsulfonyl)benzamide]
1.05 | – | CS(=O)(=O)NC(=O)c1cc(Cl)c(-n2nc(Cl)c3cc(-c4ccc(F)nc4F)ccc32)cc1F [Example 246, 5-chloro-4-(3-chloro-5-(2,6-difluoropyridin-3-yl)-1H-indazol-1-yl)-2-fluoro-N-(methylsulfonyl)benzamide]

Source: US10590078B2, “Sodium channel blockers” (Daewoong Pharmaceutical Co., Ltd., priority 2015, dated 2020)
